Laboratory results published in patent publication US6727076B2 (priority 1995, dated 2004).
“Also recorded” adds a separate entry of the source. Where a name gives a salt, the structure may show the parent alone.

Tests used:
[1] = system: E. coli 287 (ATCC #11775); format: cell-based
[2] = system: T. harzianum DAOM 190830; format: cell-based, Trichoderma harzianum
[3] = system: E. coli MG1655; format: cell-based
[4] = system: E. coli MG1655; format: cell-based; remark: listed apart in the source

Compound | suitability as phosphorus source (growth, purple color) [3] | suitability as sulfur source (growth, purple color) [3] | also measured
O=C(O)CC(Br)C(=O)O (centres unmarked) [Bromo succinic acid] |  |  | carbon source utilization result [1]: positive; carbon source utilization result [2]: positive
O=C[C@H](O)[C@@H](O)[C@H](O[C@@H]1O[C@H](CO)[C@@H](O)[C@H](O)[C@H]1O)[C@H](O)CO [Cellobiose] |  |  | carbon source utilization result [1]: negative; carbon source utilization result [2]: positive
O=C(O)CC(O)(CC(=O)O)C(=O)O [Citric acid] |  |  | carbon source utilization result [1]: negative; carbon source utilization result [2]: positive
OC[C@@H](O)C(O)[C@H](O)CO [D-arabitol] |  |  | carbon source utilization result [1]: negative; carbon source utilization result [2]: positive
O=C(CO)[C@@H](O)[C@H](O)[C@H](O)CO [D-fructose] |  |  | carbon source utilization result [1]: positive; carbon source utilization result [2]: positive
O=C[C@H](O)[C@@H](O)[C@@H](O)[C@H](O)CO [D-galactose] |  |  | carbon source utilization result [1]: positive; carbon source utilization result [2]: positive
O=C[C@H](O)[C@@H](O)[C@@H](O)[C@H](O)C(=O)O [D-galacturonic acid] |  |  | carbon source utilization result [1]: positive; carbon source utilization result [2]: positive
OC[C@@H](O)[C@@H](O)[C@H](O)[C@H](O)CO [D-mannitol] |  |  | carbon source utilization result [1]: positive; carbon source utilization result [2]: positive
O=C[C@@H](O)[C@@H](O)[C@H](O)[C@H](O)CO [D-mannose] |  |  | carbon source utilization result [1]: positive; carbon source utilization result [2]: positive
O=C(CO)[C@@H](O)[C@H](O)[C@H](O)COP(=O)(O)O [Fructose-6-phosphate] | positive |  | 
O=C[C@H](O)[C@@H](O)[C@H](O)[C@H](O)COP(=O)(O)O [Glucose-6-phosphate] | positive |  | carbon source utilization result [1]: positive
OCC(O)CO [Glycerol] |  |  | carbon source utilization result [1]: positive; carbon source utilization result [2]: positive
O=C[C@H](O)[C@@H](O)[C@@H](O)CO [L-arabinose] |  |  | carbon source utilization result [1]: positive; carbon source utilization result [2]: positive
N[C@@H](CS(=O)(=O)O)C(=O)O [L-cysteic acid] |  | positive | 
N[C@@H](CS(=O)O)C(=O)O [L-cysteine sulphinic acid] |  | positive | 
N[C@@H](CS)C(=O)O [L-cysteine] |  | positive | suitability as nitrogen source (growth, purple color) [4]: not suitable
N[C@@H](CSCSC[C@H](N)C(=O)O)C(=O)O [L-djenkolic acid] |  | positive | 
C[C@H](O)[C@@H](O)[C@@H](O)[C@H](O)C=O [L-fucose] |  |  | carbon source utilization result [1]: positive; carbon source utilization result [2]: positive
CS(=O)(=O)CC[C@H](N)C(=O)O [L-methionine sulfone] |  | not suitable | 
C[S+]([O-])CC[C@H](N)C(=O)O (stereo partly drawn) [L-methionine sulfoxide] |  | positive | 
CSCC[C@H](N)C(=O)O [L-methionine] |  | positive | suitability as nitrogen source (growth, purple color) [4]: not suitable
NCCC[C@H](N)C(=O)O [L-ornithine] |  |  | carbon source utilization result [2]: positive; suitability as nitrogen source (growth, purple color) [4]: not suitable
COC(=O)C(C)=O [Methyl pyruvate] |  |  | carbon source utilization result [1]: positive; carbon source utilization result [2]: positive
CC(=O)N[C@@H](CS)C(=O)O [N-acetyl cysteine] |  | not suitable | 

Compound | suitability as phosphorus source (growth, purple color) [3] | suitability as sulfur source (growth, purple color) [3] | also measured
CC(=O)OC[C@H](N)C(=O)O [O-acetyle-serine with sodium sulfate, O-acetyl-serine] |  | positive | 
N[C@H](COP(=O)(O)O)C(=O)O [O-phospho-D-serine] | positive |  | 
N[C@H](Cc1ccc(OP(=O)(O)O)cc1)C(=O)O [O-phospho-D-tyrosine] | positive |  | 
N[C@@H](COP(=O)(O)O)C(=O)O [O-phospho-L-serine] | positive |  | 
C[C@@H](OP(=O)(O)O)[C@H](N)C(=O)O [O-phospho-L-threonine] | positive |  | 
N[C@@H](Cc1ccc(OP(=O)(O)O)cc1)C(=O)O [O-phospho-L-tyrosine] | positive |  | 
CSC[C@H](N)C(=O)O [S-methyl-L-cysteine] |  | weak positive | 
O=C(O)CCC(=O)O [Succinic acid] |  |  | carbon source utilization result [1]: positive; carbon source utilization result [2]: positive
O=C[C@@H](O)[C@H](O)[C@H](O)COP(=O)(O)O [arabinose 5-phosphate] | positive |  | 
N[C@@H](CS)C(=O)NCC(=O)O [cys-gly] |  | positive | 
N[C@@H](CCSC[C@H](N)C(=O)O)C(=O)O [cystathionine] |  | positive | 
O=C(COP(=O)(O)O)[C@@H](O)[C@H](O)[C@H](O)CO [fructose 1-phosphate] | positive |  | 
N[C@H]1C(OP(=O)(O)O)O[C@H](CO)[C@@H](O)[C@@H]1O (some centres unmarked) [glucosamine 1-phosphate] | positive |  | 
N[C@H]1C(O)O[C@H](COP(=O)(O)O)[C@@H](O)[C@@H]1O (some centres unmarked) [glucosamine 6-phosphate] | positive |  | 
N[C@@H](CCC(=O)N[C@@H](CS)C(=O)NCC(=O)O)C(=O)O [glutathione (reduced form)] |  | positive | suitability as nitrogen source (growth, purple color) [4]: not suitable
Nc1nc2c(ncn2[C@@H]2O[C@H](CO)[C@H]3OP(=O)(O)O[C@H]32)c(=O)[nH]1 [guanosine 2′:3′-cyclic monophosphate] | positive |  | 
Nc1nc2c(ncn2[C@@H]2O[C@H](CO)[C@@H](OP(=O)(O)O)[C@H]2O)c(=O)[nH]1 [guanosine 3′-monophosphate] | positive |  | 
Nc1nc2c(ncn2[C@@H]2O[C@@H]3COP(=O)(O)O[C@H]3[C@H]2O)c(=O)[nH]1 [guanosine 3′:5′-cyclic monophosphate] | not suitable |  | 
NCCS(=O)O [hypotaurine] |  | positive | 
O=P(O)(O)O[C@H]1[C@H](OP(=O)(O)O)[C@@H](OP(=O)(O)O)[C@H](OP(=O)(O)O)[C@@H](OP(=O)(O)O)[C@H]1OP(=O)(O)O [inositol hexaphosphate] | not suitable |  | 
O=S(=O)(O)CCO [isethionate] |  | positive | 
N[C@@H](CSC[C@H](N)C(=O)O)C(=O)O [lanthionine] |  | positive | 
O=P(O)(O)OC1O[C@H](CO)[C@@H](O)[C@H](O)[C@@H]1O (some centres unmarked) [mannose 1-phosphate] | positive |  | 
O=C[C@@H](O)[C@@H](O)[C@H](O)[C@H](O)COP(=O)(O)O [mannose 6-phosphate] | positive |  | 

Compound | suitability as phosphorus source (growth, purple color) [3] | suitability as sulfur source (growth, purple color) [3] | also measured
O=P(O)(O)CP(=O)(O)O [methylene diphosphonic acid] | not suitable |  | 
CN(CC(=O)O)C(=N)NP(=O)(O)O [phosphocreatine] | positive |  | 
C=C(OP(=O)(O)O)C(=O)O [phosphoenol pyruvate] | positive |  | 
O=C(O)COP(=O)(O)O [phosphoglycolic acid] | positive |  | 
O=C(O)CP(=O)(O)O [phosphonoacetic acid] | not suitable |  | 
O=P(O)(O)OP(=O)(O)O [pyrophosphate] | not suitable |  | 
NC(=O)CCC(=O)O [succinamic acid] |  |  | carbon source utilization result [2]: positive
NCCS(=O)(=O)O [taurine] |  | positive | 
C[C@H](CCC(=O)NCCS(=O)(=O)O)[C@H]1CC[C@H]2[C@@H]3[C@H](O)C[C@@H]4C[C@H](O)CC[C@]4(C)[C@H]3C[C@H](O)[C@]12C [taurocholic acid] |  | positive | 
O=S1(=O)CCCC1 [tetramethylene sulfone] |  | not suitable | 
O=S(=O)(O)SSS(=O)(=O)O [tetrathionate] |  | positive | 
O=C(O)CS [thioglycolic acid] |  | not suitable | 
OP(O)(O)=S [thiophosphate] | positive | positive | 
O=S(O)(O)=S [thiosulfate] |  | positive | 
Cc1cn([C@H]2C[C@H](OP(=O)(O)O)[C@@H](CO)O2)c(=O)[nH]c1=O [thymidine 3′-monophosphate] | positive |  | 
Cc1cn([C@H]2C[C@H](O)[C@@H](COP(=O)(O)O)O2)c(=O)[nH]c1=O [thymidine 5′-monophosphate] | positive |  | 
O=P(O)(O)OP(=O)(O)OP(=O)(O)O [tripolyphosphate] | not suitable |  | 
O=c1ccn([C@@H]2O[C@H](CO)[C@@H](O)[C@H]2OP(=O)(O)O)c(=O)[nH]1 [uridine 2′-monophosphate] | positive |  | 
O=C(O)CCC(=O)C(=O)O [α-ketoglutaric acid] |  |  | carbon source utilization result [2]: positive
O=P(O)(O)OC(CO)CO [β-glycerophosphate] | positive |  | 
NCCCC(=O)O [γ-aminobutyric acid] |  |  | carbon source utilization result [2]: positive; suitability as nitrogen source (growth, purple color) [4]: weak positive; also recorded: not suitable
glycogen |  |  | carbon source utilization result [2]: positive
phosphatidyl glycerol | not suitable |  | 
